Reference: ChEMBL document CHEMBL3774354, “Discovery of Selective Histone Deacetylase 6 Inhibitors Using the Quinazoline as the Cap for the Treatment of Cancer” (J Med Chem, 2016)
Activity calls are given as the source filed them. No cut-off for these calls is given here.

Key:
[1] = AUC (0 to infinity) in Sprague-Dawley rat at 12 mg/kg, iv administered by bolus injection measured up to 24 hrs by LC-MS/MS analysis; assay type: ADME, organism-based; design: dose 12 mg/kg, route intravenous, time infinity; settings: in vivo
[2] = system: Mus musculus; assay: Toxicity in Balb/c nude mouse xenografted with human HCT116 cells assessed as death at 25 mg/kg, po q2d for 8 days; assay type: organism-based, HCT-116; settings: in vivo, 192 h
[3] = molecular target: Histone deacetylase 9 (Homo sapiens, UniProt Q9UKV0); assay: Inhibition of recombinant HDAC9 (unknown origin) using AMC labeled AC-peptide as substrate at 10 uM incubated for 1 hr by fluorescence analysis
[4] = system: MV4-11; assay: Antitumor activity against human MV4-11 cells xenografted in NOD/SCID mouse assessed as tumor mass change at 50 mg/kg, iv q2d for 12 days; assay type: functional
[5] = system: MV4-11; assay: Cytotoxicity against human MV4-11 cells after 72 hrs by MTT assay; assay type: functional, cell-based; settings: MV4-11, 72 h
[6] = system: Rattus norvegicus; assay: Volume of distribution at steady state in Sprague-Dawley rat at 12 mg/kg, po measured up to 24 hrs by LC-MS/MS analysis; assay type: ADME, organism-based; settings: in vivo
[7] = system: HeLa; assay: Induction of histone H3 acetylation in human HeLa cells incubated for 6 hrs by cytoblot assay; assay type: functional, cell-based
[8] = system: Ramos; assay: Cytotoxicity against human Ramos cells after 72 hrs by MTT assay; assay type: functional, cell-based
[9] = molecular target: T1, Protein deacetylase HDAC6 (Homo sapiens) (UniProt Q9UBN7); assay: Inhibition of HDAC6 in human HCT116 cells assessed as upregulation of alpha- tubulin acetylation after 6 hrs by Western blot analysis; assay type: cell-based; settings: HCT-116
T1 sequence (whole entry): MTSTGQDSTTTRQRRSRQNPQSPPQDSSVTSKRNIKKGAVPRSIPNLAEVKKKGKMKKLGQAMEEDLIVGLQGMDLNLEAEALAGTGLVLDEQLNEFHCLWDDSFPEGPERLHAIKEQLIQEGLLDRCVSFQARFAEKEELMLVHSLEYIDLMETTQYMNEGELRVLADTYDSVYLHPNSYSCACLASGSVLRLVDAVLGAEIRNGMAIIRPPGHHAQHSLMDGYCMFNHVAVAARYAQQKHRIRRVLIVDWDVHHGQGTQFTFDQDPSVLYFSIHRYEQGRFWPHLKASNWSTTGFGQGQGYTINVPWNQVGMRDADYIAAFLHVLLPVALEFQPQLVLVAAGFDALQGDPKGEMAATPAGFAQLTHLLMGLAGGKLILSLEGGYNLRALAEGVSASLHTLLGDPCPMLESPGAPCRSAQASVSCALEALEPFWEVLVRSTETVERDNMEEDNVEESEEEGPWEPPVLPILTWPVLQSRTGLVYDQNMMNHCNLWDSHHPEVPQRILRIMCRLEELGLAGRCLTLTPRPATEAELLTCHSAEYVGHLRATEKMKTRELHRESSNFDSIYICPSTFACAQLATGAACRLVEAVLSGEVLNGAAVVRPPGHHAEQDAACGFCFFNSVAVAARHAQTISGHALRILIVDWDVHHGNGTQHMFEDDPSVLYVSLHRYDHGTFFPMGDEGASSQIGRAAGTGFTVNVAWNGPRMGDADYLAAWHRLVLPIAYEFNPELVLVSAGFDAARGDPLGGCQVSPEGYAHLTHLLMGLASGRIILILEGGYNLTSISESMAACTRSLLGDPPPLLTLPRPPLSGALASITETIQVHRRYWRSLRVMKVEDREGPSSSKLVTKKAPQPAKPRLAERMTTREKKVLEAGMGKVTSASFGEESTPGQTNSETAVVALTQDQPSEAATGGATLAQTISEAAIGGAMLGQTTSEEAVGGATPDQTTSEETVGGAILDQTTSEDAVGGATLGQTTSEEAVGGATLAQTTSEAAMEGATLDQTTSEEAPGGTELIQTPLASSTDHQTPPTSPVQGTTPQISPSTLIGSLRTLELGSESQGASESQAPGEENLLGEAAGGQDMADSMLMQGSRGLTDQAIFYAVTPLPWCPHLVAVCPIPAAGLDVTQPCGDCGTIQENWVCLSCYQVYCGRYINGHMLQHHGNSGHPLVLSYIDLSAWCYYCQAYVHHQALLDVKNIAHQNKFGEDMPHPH

[10] = Antitumor activity against human HCT116 cells xenografted in Balb/c nude mouse assessed as tumor mass change at 25 mg/kg, po q2d for 8 days; assay type: functional, HCT-116
[11] = molecular target: Histone deacetylase 11 (Homo sapiens, UniProt Q96DB2)
Description: Inhibition of recombinant HDAC11 (unknown origin) using AMC labeled AC-peptide as substrate incubated for 1 hr by fluorescence analysis

[12] = system: Mus musculus; assay: Toxicity in Balb/c nude mouse xenografted with human HCT116 cells assessed as change in body weight at 25 mg/kg, po q2d for 8 days; assay type: organism-based, HCT-116; settings: in vivo, 192 h
[13] = system: Mus musculus; assay: Toxicity in NOD/SCID mouse xenografted with human MV4-11 cells assessed as death at 50 mg/kg, iv q2d for 12 days; assay type: organism-based; settings: in vivo, 288 h
[14] = molecular target: Histone deacetylase 4 (Homo sapiens, UniProt P56524); assay: Inhibition of recombinant HDAC4 (unknown origin) using AMC labeled AC-peptide as substrate incubated for 1 hr by fluorescence analysis
[15] = system: HeLa; assay: Antiproliferative activity against human HeLa cells after 72 hrs by MTT assay; assay type: functional, cell-based
[16] = molecular target: Histone deacetylase 5 (Homo sapiens, UniProt Q9UQL6)
Description: Inhibition of recombinant HDAC5 (unknown origin) using AMC labeled AC-peptide as substrate incubated for 1 hr by fluorescence analysis

[17] = Cytotoxicity against human H460 cells after 72 hrs by MTT assay; assay type: functional, cell-based; settings: NCI-H460, 72 h
[18] = molecular target: Histone deacetylase 7 (Homo sapiens) (UniProt Q8WUI4); assay: Inhibition of recombinant HDAC7 (unknown origin) using AMC labeled AC-peptide as substrate at 10 uM incubated for 1 hr by fluorescence analysis
[19] = system: Mus musculus; assay: Toxicity in Balb/c nude mouse xenografted with human HCT116 cells assessed as death at 50 mg/kg, iv q2d for 9 days; assay type: organism-based, HCT-116; settings: in vivo, 216 h
[20] = molecular target: T1, Protein deacetylase HDAC6 (Homo sapiens); assay: Inhibition of HDAC6 in human MV4-11 cells assessed as upregulation of alpha- tubulin acetylation after 6 hrs by Western blot analysis; assay type: cell-based
[21] = Cmax in Sprague-Dawley rat at 12 mg/kg, po measured up to 24 hrs by LC-MS/MS analysis; assay type: ADME, organism-based; design: dose 12 mg/kg, route oral; settings: in vivo
[22] = Cytotoxicity against human SKBR3 cells after 72 hrs by MTT assay; assay type: functional, cell-based; settings: SK-BR-3, 72 h
[23] = system: Ramos; assay: Antitumor activity against human Ramos cells xenografted in NOD/SCID mouse assessed as tumor mass change at 80 mg/kg, po q2d for 6 days; assay type: functional
[24] = system: A-375; assay: Antiproliferative activity against human A375 cells after 72 hrs by MTT assay; assay type: functional, cell-based; settings: A-375, 72 h
[25] = system: Mus musculus; assay: Toxicity in NOD/SCID mouse xenografted with human Ramos cells assessed as death at 40 mg/kg, po q2d for 6 days; assay type: organism-based; settings: in vivo, 144 h
[26] = system: Mus musculus; assay: Toxicity in NOD/SCID mouse xenografted with human MV4-11 cells assessed as change in body weight at 50 mg/kg, iv q2d for 12 days; assay type: organism-based; settings: in vivo, 288 h
[27] = Cytotoxicity against human RPMI8226 cells after 72 hrs by MTT assay; assay type: functional, cell-based; settings: RPMI-8226, 72 h

Chain of Histone deacetylase 4 (P56524 whole entry): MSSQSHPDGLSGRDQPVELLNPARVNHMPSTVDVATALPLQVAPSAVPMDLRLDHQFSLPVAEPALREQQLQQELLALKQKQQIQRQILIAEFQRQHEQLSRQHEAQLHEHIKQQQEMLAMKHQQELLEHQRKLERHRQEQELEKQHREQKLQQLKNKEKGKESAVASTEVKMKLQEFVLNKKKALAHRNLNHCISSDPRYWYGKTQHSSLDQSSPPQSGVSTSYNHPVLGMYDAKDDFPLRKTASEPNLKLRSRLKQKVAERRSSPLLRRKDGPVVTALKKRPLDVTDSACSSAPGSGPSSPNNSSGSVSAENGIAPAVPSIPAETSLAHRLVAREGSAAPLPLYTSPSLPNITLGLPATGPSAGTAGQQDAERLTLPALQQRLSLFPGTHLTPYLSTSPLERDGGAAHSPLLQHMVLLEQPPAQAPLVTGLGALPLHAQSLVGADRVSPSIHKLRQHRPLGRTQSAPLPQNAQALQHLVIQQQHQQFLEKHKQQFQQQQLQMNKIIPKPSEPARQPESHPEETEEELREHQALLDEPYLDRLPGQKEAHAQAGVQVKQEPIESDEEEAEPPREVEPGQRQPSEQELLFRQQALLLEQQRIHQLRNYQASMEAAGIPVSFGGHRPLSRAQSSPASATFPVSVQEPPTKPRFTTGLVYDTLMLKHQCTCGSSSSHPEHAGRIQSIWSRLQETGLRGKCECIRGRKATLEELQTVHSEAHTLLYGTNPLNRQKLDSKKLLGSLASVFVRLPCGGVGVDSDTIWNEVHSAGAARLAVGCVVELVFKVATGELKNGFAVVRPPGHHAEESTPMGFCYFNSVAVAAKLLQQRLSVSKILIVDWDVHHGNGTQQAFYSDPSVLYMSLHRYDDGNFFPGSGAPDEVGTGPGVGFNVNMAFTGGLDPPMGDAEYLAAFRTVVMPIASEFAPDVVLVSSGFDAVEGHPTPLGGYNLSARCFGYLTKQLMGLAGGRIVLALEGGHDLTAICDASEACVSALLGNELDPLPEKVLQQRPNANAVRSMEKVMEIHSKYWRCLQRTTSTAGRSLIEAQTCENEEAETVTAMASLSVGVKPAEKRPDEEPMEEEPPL
Chain of Histone deacetylase 9 (Q9UKV0 whole entry): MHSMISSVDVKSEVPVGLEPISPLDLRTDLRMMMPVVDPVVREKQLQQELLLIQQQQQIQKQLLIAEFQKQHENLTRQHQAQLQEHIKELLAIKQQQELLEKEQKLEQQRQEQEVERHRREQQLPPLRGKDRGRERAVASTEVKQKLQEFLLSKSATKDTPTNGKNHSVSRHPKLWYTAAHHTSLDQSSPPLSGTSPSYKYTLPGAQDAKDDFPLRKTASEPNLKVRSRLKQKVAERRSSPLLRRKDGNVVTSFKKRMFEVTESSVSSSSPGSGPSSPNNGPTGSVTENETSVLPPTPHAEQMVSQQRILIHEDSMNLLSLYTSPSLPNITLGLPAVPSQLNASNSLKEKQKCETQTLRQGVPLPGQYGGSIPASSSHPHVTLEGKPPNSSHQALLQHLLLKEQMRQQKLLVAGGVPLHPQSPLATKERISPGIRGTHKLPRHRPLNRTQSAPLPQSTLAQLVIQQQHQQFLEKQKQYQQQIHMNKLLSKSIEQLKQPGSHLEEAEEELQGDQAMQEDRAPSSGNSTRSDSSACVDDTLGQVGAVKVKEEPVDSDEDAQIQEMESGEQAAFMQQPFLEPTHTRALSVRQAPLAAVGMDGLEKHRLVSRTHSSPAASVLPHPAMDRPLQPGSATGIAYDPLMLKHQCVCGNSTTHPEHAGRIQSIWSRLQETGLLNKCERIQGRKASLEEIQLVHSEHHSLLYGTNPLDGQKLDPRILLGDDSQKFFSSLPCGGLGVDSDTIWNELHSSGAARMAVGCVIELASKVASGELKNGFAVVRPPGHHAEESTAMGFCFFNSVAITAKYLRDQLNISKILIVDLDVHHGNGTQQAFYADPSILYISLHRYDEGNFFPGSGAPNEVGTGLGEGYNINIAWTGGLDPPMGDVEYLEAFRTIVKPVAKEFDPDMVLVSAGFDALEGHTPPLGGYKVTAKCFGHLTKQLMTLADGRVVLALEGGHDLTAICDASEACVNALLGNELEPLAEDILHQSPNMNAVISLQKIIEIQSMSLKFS
Chain of Histone deacetylase 7 (Homo sapiens) (Q8WUI4 whole entry): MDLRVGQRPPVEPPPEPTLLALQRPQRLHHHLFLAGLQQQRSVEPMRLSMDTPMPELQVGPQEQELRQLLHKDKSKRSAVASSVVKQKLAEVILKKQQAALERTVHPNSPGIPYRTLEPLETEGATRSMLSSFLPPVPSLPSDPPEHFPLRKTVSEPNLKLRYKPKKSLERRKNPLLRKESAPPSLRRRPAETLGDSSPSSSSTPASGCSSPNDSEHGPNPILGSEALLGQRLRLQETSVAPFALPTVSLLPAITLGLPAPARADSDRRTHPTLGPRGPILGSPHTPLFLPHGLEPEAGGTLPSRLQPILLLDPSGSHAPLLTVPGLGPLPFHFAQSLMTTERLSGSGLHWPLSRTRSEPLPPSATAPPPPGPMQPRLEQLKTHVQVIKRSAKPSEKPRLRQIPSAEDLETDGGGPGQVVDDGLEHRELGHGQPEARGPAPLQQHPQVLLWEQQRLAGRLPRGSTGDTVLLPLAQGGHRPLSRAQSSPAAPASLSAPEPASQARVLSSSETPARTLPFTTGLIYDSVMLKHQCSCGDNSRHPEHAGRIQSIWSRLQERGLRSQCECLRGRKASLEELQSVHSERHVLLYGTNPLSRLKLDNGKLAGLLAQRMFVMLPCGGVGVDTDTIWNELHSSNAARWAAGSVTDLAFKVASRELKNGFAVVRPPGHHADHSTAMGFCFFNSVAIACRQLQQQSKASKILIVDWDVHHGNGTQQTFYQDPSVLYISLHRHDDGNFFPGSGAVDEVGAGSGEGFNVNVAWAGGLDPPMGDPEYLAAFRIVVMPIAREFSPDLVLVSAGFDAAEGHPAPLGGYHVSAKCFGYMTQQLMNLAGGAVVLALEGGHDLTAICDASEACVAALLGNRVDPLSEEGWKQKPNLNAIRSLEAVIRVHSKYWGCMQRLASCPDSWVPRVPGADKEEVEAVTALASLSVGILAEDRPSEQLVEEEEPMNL
Chain of Histone deacetylase 11 (Q96DB2 whole entry): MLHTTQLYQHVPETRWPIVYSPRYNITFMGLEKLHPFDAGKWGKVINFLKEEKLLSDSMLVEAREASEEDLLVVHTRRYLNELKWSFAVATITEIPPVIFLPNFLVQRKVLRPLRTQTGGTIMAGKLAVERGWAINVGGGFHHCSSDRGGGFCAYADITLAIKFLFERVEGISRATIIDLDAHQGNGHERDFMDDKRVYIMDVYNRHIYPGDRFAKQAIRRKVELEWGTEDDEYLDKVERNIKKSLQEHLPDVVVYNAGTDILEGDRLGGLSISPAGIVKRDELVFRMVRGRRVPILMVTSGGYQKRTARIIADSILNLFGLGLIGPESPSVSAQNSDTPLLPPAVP
Chain of Histone deacetylase 5 (Q9UQL6 whole entry): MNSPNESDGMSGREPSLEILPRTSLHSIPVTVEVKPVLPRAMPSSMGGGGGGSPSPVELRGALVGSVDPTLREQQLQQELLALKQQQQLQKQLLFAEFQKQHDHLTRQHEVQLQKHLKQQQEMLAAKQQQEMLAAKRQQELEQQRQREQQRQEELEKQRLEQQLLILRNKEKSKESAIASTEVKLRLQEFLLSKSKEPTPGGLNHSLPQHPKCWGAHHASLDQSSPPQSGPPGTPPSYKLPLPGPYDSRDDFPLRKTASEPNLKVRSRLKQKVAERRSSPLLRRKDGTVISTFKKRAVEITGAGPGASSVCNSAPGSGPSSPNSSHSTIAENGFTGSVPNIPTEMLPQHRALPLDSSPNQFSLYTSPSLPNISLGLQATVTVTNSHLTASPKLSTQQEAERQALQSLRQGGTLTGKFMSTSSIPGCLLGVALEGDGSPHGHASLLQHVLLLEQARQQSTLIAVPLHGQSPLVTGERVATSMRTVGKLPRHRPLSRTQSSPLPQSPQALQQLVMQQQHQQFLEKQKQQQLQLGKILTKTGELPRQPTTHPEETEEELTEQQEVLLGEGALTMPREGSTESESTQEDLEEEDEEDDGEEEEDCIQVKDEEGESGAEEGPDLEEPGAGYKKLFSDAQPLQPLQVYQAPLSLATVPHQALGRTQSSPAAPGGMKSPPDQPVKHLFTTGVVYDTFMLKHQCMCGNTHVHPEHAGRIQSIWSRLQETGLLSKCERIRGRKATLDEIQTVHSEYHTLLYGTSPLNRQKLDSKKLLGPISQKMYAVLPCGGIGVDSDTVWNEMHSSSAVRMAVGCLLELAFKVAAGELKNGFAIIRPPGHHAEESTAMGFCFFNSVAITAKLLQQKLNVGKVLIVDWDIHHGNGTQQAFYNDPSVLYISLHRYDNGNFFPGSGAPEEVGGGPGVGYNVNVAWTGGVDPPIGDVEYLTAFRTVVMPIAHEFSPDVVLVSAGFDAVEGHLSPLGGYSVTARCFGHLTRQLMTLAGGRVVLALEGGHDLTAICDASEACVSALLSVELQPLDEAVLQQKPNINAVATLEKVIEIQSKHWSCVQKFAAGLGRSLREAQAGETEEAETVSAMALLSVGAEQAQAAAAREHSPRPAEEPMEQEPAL

COc1ccc(N(C)c2nc(C)nc3ccccc23)cc1OCCCC(=O)NO
AUC(0-inf) [1]: 2430 ng·h/mL
Activity [2]: Non-toxic
inhibition [3]: inactive
Activity [4]: 55%
IC50 [5]: 60 nM
Vdss [6]: 154.811 L/kg
EC50 [7]: 1740 nM
IC50 [8]: 71 nM
inhibition [9]: Dose-dependent effect
Activity [10]: 60.4%
IC50 [11]: > 10000 nM
Activity [12]: -3.8%
Activity [13]: Non-toxic
IC50 [14]: > 10000 nM
IC50 [15]: 49 nM
IC50 [16]: > 10000 nM
IC50 [17]: 55 nM
inhibition [18]: inactive
Activity [19]: Non-toxic
inhibition [20]: Dose-dependent effect
Cmax [21]: 238 ng/mL
IC50 [22]: 22 nM
Activity [23]: 58.79%
IC50 [24]: 45 nM
Activity [25]: Non-toxic
Activity [26]: -3.8%
IC50 [27]: 15 nM
